Measured values taken from patent publication US20260062443A1 (ALEXION PHARMACEUTICALS, INC., priority 2022, published 2026).

target: T1, Human complement C1s enzyme (Homo sapiens, UniProt P09871); assay: Human C1s enzyme assay; format: biochemical; conditions: human complement C1s enzyme 1.16 nM, substrate Z-L-Lys-SBzl 100 μM, 5 min preincubation; read-out: IC50 (Stars), C1s Inhibiting Activity
T1 sequence (P09871 438-688 limits assumed): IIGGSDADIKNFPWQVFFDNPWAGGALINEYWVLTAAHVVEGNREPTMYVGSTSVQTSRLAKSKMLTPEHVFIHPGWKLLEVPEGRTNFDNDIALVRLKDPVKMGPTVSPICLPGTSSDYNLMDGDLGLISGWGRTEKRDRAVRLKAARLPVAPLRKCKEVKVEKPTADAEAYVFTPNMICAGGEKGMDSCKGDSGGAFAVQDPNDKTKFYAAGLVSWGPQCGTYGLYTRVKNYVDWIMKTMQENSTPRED
T1 sequence (P09871 16-437 partner limits assumed): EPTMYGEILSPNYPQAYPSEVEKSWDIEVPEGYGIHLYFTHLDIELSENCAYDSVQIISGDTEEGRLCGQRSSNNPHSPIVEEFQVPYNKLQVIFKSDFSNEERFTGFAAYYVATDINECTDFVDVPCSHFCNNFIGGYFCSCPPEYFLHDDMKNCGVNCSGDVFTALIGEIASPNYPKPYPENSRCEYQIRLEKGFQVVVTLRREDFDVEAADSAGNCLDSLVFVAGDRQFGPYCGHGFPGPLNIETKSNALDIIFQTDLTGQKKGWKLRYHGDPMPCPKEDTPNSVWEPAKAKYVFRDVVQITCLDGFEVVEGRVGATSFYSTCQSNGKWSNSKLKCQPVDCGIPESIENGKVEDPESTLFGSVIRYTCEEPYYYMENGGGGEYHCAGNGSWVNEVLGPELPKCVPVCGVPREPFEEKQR
Outline: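 IC50 from nonlinear regression of reaction rates versus compound concentration, with rates taken from A405 recorded at 30 s intervals over 30 min after adding 100 μM Z-L-Lys-SBzl plus 100 μM DTNB. Enzyme was human C1s purified from serum, 1.16 nM, given 5 min compound preincubation at room temperature, pH 7.5 Tris/1 M NaCl.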

IC50 [nM] | Structure (SMILES)
< 100 | O=C(NCC(=O)N1C[C@H](OC(F)F)C[C@H]1C(=O)NCc1cc2cnccc2[nH]1)c1cc(-c2ccc(Cl)cc2)cs1 [Compound 377, (2S,4R)-N-((1H-pyrrolo[3,2-c]pyridin-2-yl)methyl)-1-((4-(4-chlorophenyl)thiophene-2-carbonyl)glycyl)-4-(difluoromethoxy)pyrrolidine-2-carboxamide]
< 100 | Cc1cc(C(=O)NCC(=O)N2C[C@H](OC(F)F)C[C@H]2C(=O)N[C@H](C)c2cc3cnccc3[nH]2)ccc1Oc1ccccc1 [Compound 81]
< 100 | C[C@@H](NC(=O)[C@@H]1C[C@](F)(Cn2ccnn2)CN1C(=O)CNC(=O)c1ccc2c(c1)Oc1ccccc1S2)c1cc2cnccc2[nH]1 [Compound 216, (2S,4R)-4-((1H-1,2,3-triazol-1-yl)methyl)-N-((R)-1-(1H-pyrrolo[3,2-c]pyridin-2-yl)ethyl)-4-fluoro-1-((phenoxathiine-3-carbonyl)glycyl)pyrrolidine-2-carboxamide]
< 100 | O=C(NCC(=O)N1C[C@H](OC(F)F)C[C@H]1C(=O)NCc1cc2cnccc2[nH]1)c1cccc(Oc2cccs2)c1 [Compound 275, (2S,4R)-N-((1II-pyrrolo[3,2-c]pyridin-2-yl)methyl)-4-(difluoromethoxy)-1-((3-(thiophen-2-yloxy)benzoyl)glycyl)pyrrolidine-2-carboxamide]
> 1000 | O=C(NCC(=O)N1CC2(C[C@H]1C(=O)O)OCCO2)c1ccc(Oc2ccccc2)cc1 [Compound 119, (S)-7-((4-phenoxybenzoyl)glycyl)-1,4-dioxa-7-azaspiro[4.4]nonane-8-carboxylic acid]
< 100 | C[C@@H](NC(=O)[C@@H]1C[C@@H](OC(F)F)CN1C(=O)CNC(=O)c1cccc(Oc2ccc(F)cc2)c1)c1cc2cnccc2[nH]1 [Compound 241, (2S,4R)-N-((R)-1-(1H-pyrrolo[3,2-c]pyridin-2-yl)ethyl)-4-(difluoromethoxy)-1-((3-(4-fluorophenoxy)benzoyl)glycyl) pyrrolidine-2-carboxamide]
< 100 | Cc1ccc(Oc2cccc(C(=O)NCC(=O)N3C[C@H](OC(F)F)C[C@H]3C(=O)NCc3cc4cnccc4[nH]3)c2)c(C)c1 [Compound 298, (2S,4R)-N-((1H-pyrrolo[3,2-c]pyridin-2-yl)methyl)-4-(difluoromethoxy)-1-((3-(2,4-dimethylphenoxy)benzoyl)glycyl) pyrrolidine-2-carboxamide]
< 100 | O=C(NCC(=O)N1C[C@H](OC(F)F)C[C@H]1C(=O)NCc1cc2cnccc2[nH]1)c1cccc(Oc2ccc(F)cc2F)c1 [Compound 259, (2S,4R)-N-((1H-pyrrolo[3,2-c]pyridin-2-yl)methyl)-4-(difluoromethoxy)-1-((3-(2,4-difluorophenoxy)benzoyl)glycyl)pyrrolidine-2-carboxamide]
> 1000 | Cc1cc(CN)cc(C2(NC(=O)[C@@H]3C[C@]4(C)C[C@@H]4N3C(=O)CNC(=O)CCCOc3ccccc3)CC2)c1 [Compound 64, (1S,3S,5S)-N-(1-(3-(aminomethyl)-5-methylphenyl)cyclopropyl)-5-methyl-2-((4-phenoxybutanoyl)glycyl)-2-azabicyclo[3.1.0]hexane-3-carboxamide]
< 100 | C[C@@]12C[C@@H]1N(C(=O)CNC(=O)c1ccc3c(c1)Oc1ccccc1S3)[C@H](C(=O)NCc1cc3cnccc3[nH]1)C2 [Compound 44, (1S,3S,5S)-N-((1H-pyrrolo[3,2-c]pyridin-2-yl)methyl)-5-methyl-2-((phenoxathiine-3-carbonyl)glycyl)-2-azabicyclo[3.1.0]hexane-3-carboxamide]
< 100 | O=C(NCC(=O)N1CC2(C[C@H]1C(=O)NCc1cc3cnccc3[nH]1)OCCO2)c1ccc(-c2ccccc2)cn1 [Compound 107, (S)-N-((1H-pyrrolo[3,2-c]pyridin-2-yl)methyl)-7-((5-phenylpicolinoyl)glycyl)-1,4-dioxa-7-azaspiro[4.4]nonane-8-carboxamide]
< 100 | COC[C@@]1(F)C[C@@H](C(=O)N[C@H](C)c2cc3cnccc3[nH]2)N(C(=O)CNC(=O)c2ccc(Oc3ccc(F)cc3)cc2)C1 [Compound 175, (2S,4R)-N-((R)-1-(1H-pyrrolo[3,2-c]pyridin-2-yl)ethyl)-4-fluoro-1-((4-(4-fluorophenoxy)benzoyl)glycyl)-4-(methoxymethyl)pyrrolidine-2-carboxamide]
< 100 | C[C@@H](NC(=O)[C@@H]1C[C@@H](c2ncco2)CN1C(=O)CNC(=O)c1ccc2c(c1)Oc1ccccc1S2)c1cc2cnccc2[nH]1 [Compound 177, (2S,4R)-N-((R)-1-(1H-pyrrolo[3,2-c]pyridin-2-yl)ethyl)-4-(oxazol-2-yl)-1-((phenoxathiine-3-carbonyl)glycyl)pyrrolidine-2-carboxamide]
> 1000 | O=C(NCC(=O)N1CC2(C[C@H]1C(=O)NCc1cc3ccccc3[nH]1)OCCO2)c1ccc2c(c1)-c1ccccc1C2(F)F [Compound 3, (S)-N-((1H-indol-2-yl)methyl)-7-((9,9-difluoro-9H-fluorene-3-carbonyl)glycyl)-1,4-dioxa-7-azaspiro[4.4]nonane-8-carboxamide]
> 1000 | O=C(NCC(=O)N1C[C@H](OC(F)F)C[C@H]1C(=O)NCc1ccc2[nH]ccc2c1)c1ccc2c(c1)Oc1ccccc1S2 [Compound 195, (2S,4R)-N-((1H-indol-5-yl)methyl)-4-(difluoromethoxy)-1-((phenoxathiine-3-carbonyl)glycyl)pyrrolidine-2-carboxamide]
> 1000 | C[C@@]12C[C@@H]1N(C(=O)CNC(=O)CCCOc1ccccc1)[C@H](C(=O)NC1(c3nc4cnccc4[nH]3)CC1)C2 [Compound 109, (1S,3S,5S)-N-(1-(1H-imidazo[4,5-c]pyridin-2-yl)cyclopropyl)-5-methyl-2-((4-phenoxybutanoyl)glycyl)-2-azabicyclo[3.1.0]hexane-3-carboxamide]
> 1000 | O=C(NCC(=O)N1CC2(C[C@H]1C(=O)NCc1cc3ncccc3[nH]1)OCCO2)c1ccc2c(c1)-c1ccccc1C2(F)F [Compound 34, (S)-N-((1H-pyrrolo[3,2-b]pyridin-2-yl)methyl)-7-((9,9-difluoro-9H-fluorene-3-carbonyl)glycyl)-1,4-dioxa-7-azaspiro[4.4]nonane-8-carboxamide]
> 1000 | O=C(NCC(=O)N1C[C@H](OC(F)F)C[C@H]1C(=O)NCc1ccc2ncsc2c1)c1ccc2c(c1)Oc1ccccc1S2 [Compound 245, (2S,4R)-N-(benzo[d]thiazol-6-ylmethyl)-4-(difluoromethoxy)-1-((phenoxathiine-3-carbonyl)glycyl)pyrrolidine-2-carboxamide]
< 100 | C[C@@H](NC(=O)[C@@H]1C[C@@H](OC(F)F)CN1C(=O)CNC(=O)c1ccc(-c2ccc(F)cc2F)cc1)c1cc2cnccc2[nH]1 [Compound 90, (2S,4R)-N-((R)-1-(1H-pyrrolo[3,2-c]pyridin-2-yl)ethyl)-1-((2′,4′′-difluoro-[1,1′-biphenyl]-4-carbonyl)glycyl)-4-(difluoromethoxy)pyrrolidine-2-carboxamide]
> 1000 | C[C@@H](NC(=O)[C@@H]1C[C@]2(C)C[C@@H]2N1C(=O)CNC(=O)c1ccc(Oc2ccccc2)cc1)c1cc(B(O)O)cs1 [Compound 163, (5-((R)-1-((1S,3S,5S)-5-methyl-2-((4-phenoxybenzoyl)glycyl)-2-azabicyclo[3.1.0]hexane-3-carboxamido)ethyl)thiophen-3-yl)boronic acid]
< 100 | CCc1ccc(Oc2cccc(C(=O)NCC(=O)N3C[C@H](OC(F)F)C[C@H]3C(=O)NCc3cc4cnccc4[nH]3)c2)s1 [Compound 368, (2S,4R)-4-(difluoromethoxy)-1-[2-[[3-[(5-ethyl-2-thienyl)oxy]benzoyl]amino]acetyl]-N-(1H-pyrrolo[3,2-c]pyridin-2-ylmethyl)pyrrolidine-2-carboxamide]
< 100 | Cc1ccc(Oc2cccc(C(=O)NCC(=O)N3C[C@H](OC(F)F)C[C@H]3C(=O)NCc3cc4cnccc4[nH]3)c2F)cc1 [Compound 327, (2S,4R)-N-((1H-pyrrolo[3,2-c]pyridin-2-yl)methyl)-4-(difluoromethoxy)-1-((2-fluoro-3-(p-tolyloxy)benzoyl)glycyl) pyrrolidine-2-carboxamide]
< 100 | O=C(NCC(=O)N1CC2(C[C@H]1C(=O)NCc1cc3cnccc3[nH]1)OCCO2)c1ccc2c(c1)-c1ccccc1C2(F)F [Compound 2, (S)-N-((1H-pyrrolo[3,2-c]pyridin-2-yl)methyl)-7-((9,9-difluoro-9H-fluorene-3-carbonyl)glycyl)-1,4-dioxa-7-azaspiro[4.4]nonane-8-carboxamide]
> 1000 | C[C@@]12C[C@@H]1N(C(=O)CNC(=O)c1ccc3c(c1)Oc1ccccc1S3)[C@H](C(=O)NCc1cc3cc(B(O)O)ccc3[nH]1)C2 [Compound 291, (2-(((1S,3S,5S)-5-methyl-2-((phenoxathiine-3-carbonyl)glycyl)-2-azabicyclo[3.1.0]hexane-3-carboxamido)methyl)-1H-indol-5-yl)boronic acid]
